# Assay results taken from patent US5180742A, “Quinone derivatives, their production and use” (Takeda Chemical Industries, Ltd., priority 1984, dated 1993).
# Key:
# [1] = tested on: O2^- production in guinea pigs peritoneal macrophages; assay: Inhibitory effect on O2- production in guinea pig peritoneal macrophages (chemiluminescence); format: cell-based, guinea pig (Hartley); details: Cavia porcellus, Peritoneal macrophage, 3 experiments
# Description: Superoxide (O2^-) Production in Guinea Pig Peritoneal Macrophages
# Male Hartley guinea pigs weighing 400-450 g were given intraperitoneally 5 ml of liquid paraffin. Four days later, 15 ml of Hank's buffer were administered into the peritoneal cavity for harvest of peritoneal cells. Macrophages in the peritoneal cells were purified by the method of Wood, P. R. [J. Immunol. Methods, 28, 117-124 (1979)].
# The purity of macrophages was more than 95%. The reaction mixture contained 75 μl of macrophages (1×10^7 cells/ml), 5 μl of luminol, 10 μl of phorbol myristate acetate and 10 μl of drugs in a total volume of 100 μl. O2^- Product was assayed by chemiluminescence. Drugs were dissolved in a 10% dimethyl sulfoxide.
# [2] = tested on: Immunoglobulin-G1 mediated bronchoconstriction reaction; assay: Action on immunoglobulin-G1 mediated bronchoconstriction reaction in guinea pigs; format: in vivo, Hartley guinea pigs; details: Cavia porcellus; 20 mg/kg oral, 1 hour before antigen
# Description: Action on the Immunoglobulin-G1 Mediated Bronchoconstriction Reaction in Guinea Pigs
# In accordance with the method of Orange and Moore (Orange, R. P. and Moore E. G. , J. Immunol., 116, 392-397, 1976), female and male Hartley guinea pigs weighing about 350 g were sensitized by intraperitoneal application of an emulsion (1 ml) composed of egg albumin (1 mg) and Freund's complete adjuvant (produced by Wako Pure-Chemical Industries, Ltd. of Japan). 3 Weeks after the sensitization, a serum antibody level in the sensitized guinea pigs was measured by means of the 3-hours passive cutaneous anaphylaxis (PCA) reaction in guinea pigs. […] The broncoconstriction reaction resulting from the antigen-antibody reaction was measured in accordance with the Konzett-Rossler method (Konzett, H. and Rossler, R., Naunyn-Schmiedeberg'ss Arch. exp. Path. pharmak., 195, 71-74, 1940). The guinea pigs were fixed on the dorsal position under anesthesia with a urethane (1.5 g/kg given intraperitonealy). An incision was made through the trachea, which was connected to an artificial respirator (manufactured by Harvard Co.) through an endotracheal tube, with a side tube of the endotracheal tube being attached to a brochoconstricting transducer (type 7020, manufactured by Ugobasile Co.). While an air volume per ventilation was adjusted to 5 to 7 ml and an air ventilation rate was controlled at 70 times/min., with a load pressure to the lung set at 10 cm H2 O, the overflown air volume was recorded on Rectigraphy-8S (manufactured by Sanei Sokki Inc. of Japan) through a transducer. After 1 mg/kg of gallamine triethiodide was given intravenously to the animals, 1 mg/kg of antigen, egg albumin dissolved in physiological saline, was applied intravenously to induce a brochoconstriction reaction. The bronchconstriction reaction was recorded for the period of time of 15 minutes. A drug was suspended in 5% gum arabic solution, and given orally 1 hour before the application of the antigen. Percent inhibition of the immunoglobuin G1 mediated bronchoconstriction reaction in guinea pigs are shown below in Table 3.
# [3] = tested on: LTD4-induced bronchoconstriction; assay: Effect on LTD4-induced bronchoconstriction in guinea pigs; format: in vivo
# Description: Effect on LTD4 -Induced Brochoconstriction in Guinea Pigs
# Bronchoconstriction in guinea pigs was measured by the method of Konzett-Rossler[Naunyn-Schmiedeberg's Arch. exp. Path. Pharmak., 195, 71-74(1940)]. The animals were anesthetized with urethane (1.5 g/kg, intraperitoneally) and the trachea was cannulated. The animals were artificially ventilated by means of a respirator (Harvard apparatus rodent respirator) at a rate of 70 strokes/min and a constant volume of 5-7 ml. Inflation pressure was kept constantly at 10 cm H2 O. Changes in overflow of air from a side-arm of the cannula were recorded on Rectigraph-8S via a bronchospasm transducer for 15 min. LTD4 (10 μg/kg) was given into the […] through an indwelling cannula. Each specimen suspended in a 5% gum arabic solution was also given through the same cannula 1 or 24 hrs before the LTD4 administraction.
# [4] = tested on: PAF-induced bronchoconstriction; assay: Effect on PAF-induced bronchoconstriction in guinea pigs; format: in vivo; details: one hour before PAF
# Description: Platelet Activating Factor (PAF)-Induced Bronchoconstriction in Guinea Pigs
# Experimental procedure in this experiment was the same as that in LTD4 -induced bronchoconstriction shown in Experimental example 7. PAF is an intraveneous dose of 1 μg/kg was used. Each specimen suspended in a 5% gum arabic solution was given orally one hour before the PAF administration.
# 5-Lipoxygenase = biological target: T1, 5-Lipoxygenase (Rattus norvegicus, UniProt P12527); assay: 5-Lipoxygenase inhibitory activity: 5-HETE production in RBL-1 cells (HPLC); format: cell-based, rat (RBL-1, rat basophilic leukemia cells); details: arachidonic acid + A 23187, 37° C., 20 minutes, read-out: 5-HETE production inhibiting effect (IC50)
# T1 construct: endogenous in cells; host or cells: RBL-1 (rat basophilic leukemia cells)
# T1 sequence (P12527 1-673): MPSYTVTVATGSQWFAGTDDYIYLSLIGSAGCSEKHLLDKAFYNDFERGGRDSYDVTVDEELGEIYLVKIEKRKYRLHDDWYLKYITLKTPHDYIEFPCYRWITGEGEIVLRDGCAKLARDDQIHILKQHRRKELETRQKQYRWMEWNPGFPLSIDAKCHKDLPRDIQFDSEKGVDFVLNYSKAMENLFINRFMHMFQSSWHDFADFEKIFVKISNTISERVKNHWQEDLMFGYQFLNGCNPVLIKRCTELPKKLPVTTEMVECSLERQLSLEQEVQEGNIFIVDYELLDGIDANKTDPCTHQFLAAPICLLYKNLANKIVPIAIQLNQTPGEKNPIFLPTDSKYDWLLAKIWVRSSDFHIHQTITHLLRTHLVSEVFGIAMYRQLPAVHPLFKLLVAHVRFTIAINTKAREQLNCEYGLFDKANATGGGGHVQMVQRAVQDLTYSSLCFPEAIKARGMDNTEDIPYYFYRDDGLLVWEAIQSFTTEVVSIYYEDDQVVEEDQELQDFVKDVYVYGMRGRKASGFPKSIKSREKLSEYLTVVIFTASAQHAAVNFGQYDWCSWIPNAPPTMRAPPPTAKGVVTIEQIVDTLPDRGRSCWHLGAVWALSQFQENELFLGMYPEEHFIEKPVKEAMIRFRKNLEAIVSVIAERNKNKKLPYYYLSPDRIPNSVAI
# Description: 5-Lipoxygenase Inhibitory Activity
# 10^7 RBL-1 cells (rat basophilic leukemia cells) were suspended in 0.5 ml of MCM (mast cell medium), and test solutions (made up of 0.5 ml of MCM, 50 μg of arachidonic acid, 10 μg of A 23187 (calcium ionophore, Eli Lilly) and 1 μM, 0.1 μM, 0.01 μM and0.001 μM as the final concentration of the quinone compound, respectively) prepared previously were added respectively to the suspension, followed by reaction at 37° C. for 20 minutes. After the conclusion of the reaction, 4 ml of ethanol and 1,4-dimethoxy-2-methyl-3-(3-methoxypropyl)naphthalene as the internal reference drug were added to the reaction solution, and the mixture was shaken thoroughly and allowed to stand at room temperature for 10 minutes. Then, it was centrifuged (2000 r.p.m.) for 10 minutes, and the supernatant fluid was separated and concentrated to dryness under reduced pressure. 0.5 Milliliter of 60% aqueous methanol was added to the concentrate, and 100 μl of the resulting solution was taken and subjected to high-performance liquid chromatography to determine amount of 5-HETE (5-hydroxyeicosatetraenoic acid). Determination of 5-HETE was made through measurement of an absorption at 237 nm with a UV absorption monitor.
# The 5-HETE production inhibitory effect (IE) was expressed by [formula] wherein a is a peak height or peak area corrected by the peak for the internal reference when the quinone compound is not contained; b is a peak height or peak area corrected by the peak for the internal reference when the quinone compound is contained.
# mice of ICR breed = format: in vivo; details: 1000 mg/kg oral, male ICR mice, 7 days
# From the text: Acute Toxicity Test in Mice (Acute Toxicity)
# 1000 Milligrams per kilogram of each set specimen was applied orally to groups of 5 five-weeks old male mice of ICR breed, and a number of dead animals observed for the 7-days period was counted.
# [5] = tested on: lipid peroxides production in rat brain homogenates; assay: Inhibitory action on lipid peroxides production in rat brain homogenates (thiobarbituric acid method); format: biochemical, rat (SD); details: n = 4-6
# Description: Inhibitory Action on Lipid Peroxides Production in Rat Brain Homogenates
# The male SD rat brain tissue was used as 5% homogenate in phosphate-buffered solution. After incubation of the homogenate for 1 hour at 37° C., the amount of lipid peroxides produced was determined by the thiobarbituric acid method according to the description of Ohkawa et al. (Analytical Biochemistry, 95: 551, 1979)
# Test compounds were used as a solution of dimethylsulfoxide. The inhibitory action on lipid peroxide production was expressed as a % inhibition as compared with the amount of production in the vehicle group. Results
compound,measurement,setting,value
"Cc1c(C)c2c(c(C)c1O)CCC(C)(CCCC(C)CCCC(C)CCCC(C)C)O2 (racemic) [dl-α-tocophenol, reference compound]",inhibition at 100 µM,[1]; 10^-4 M,11 ± 6%
same,inhibition at 10 µM,[1]; 10^-5 M,3 ± 2%
"COc1ccc(C(CCCCC(=O)O)C2=C(C)C(=O)C(C)=C(C)C2=O)cc1 (stereo not shown) [Compound No. 22, 6-(3,5,6-trimethyl-1,4-benzoquinon-2-yl)-6-(4-methoxyphenyl)hexanoicacid]",inhibition in vivo at 20 mg/kg,[2],82%
same,% Inhibition of LTD4-induced bronchoconstriction,"[3]; 0.313 mg/kg, 1 hr. before LTD4",39%
same,% Inhibition of LTD4-induced bronchoconstriction,"[3]; 1.25 mg/kg, 1 hr. before LTD4",85%
same,% Inhibition of LTD4-induced bronchoconstriction,"[3]; 5 mg/kg, 1 hr. before LTD4",90%
same,% Inhibition of LTD4-induced bronchoconstriction,"[3]; 5 mg/kg, 24 hrs. before LTD4",24%
same,% Inhibition of PAF-induced bronchoconstriction,[4]; 0.313 mg/kg oral,43%
same,% Inhibition of PAF-induced bronchoconstriction,[4]; 1.25 mg/kg oral,92%
same,% Inhibition of PAF-induced bronchoconstriction,[4]; 5 mg/kg oral,91%
CC1=C(C)C(=O)C(C(CCCCCC(=O)O)c2ccc(F)cc2)=C(C)C1=O (stereo not shown) [Compound No. 87],IC50,5-Lipoxygenase,100 nM
same,inhibition in vivo at 20 mg/kg,[2],81%
same,Acute toxicity (number of dead animals/number of animals used),mice of ICR breed,0/5
same,% Inhibition of LTD4-induced bronchoconstriction,"[3]; 0.313 mg/kg, 1 hr. before LTD4",80%
same,% Inhibition of LTD4-induced bronchoconstriction,"[3]; 1.25 mg/kg, 1 hr. before LTD4",89%
same,% Inhibition of LTD4-induced bronchoconstriction,"[3]; 5 mg/kg, 1 hr. before LTD4",93%
same,% Inhibition of LTD4-induced bronchoconstriction,"[3]; 5 mg/kg, 24 hrs. before LTD4",79%
same,% Inhibition of PAF-induced bronchoconstriction,[4]; 0.08 mg/kg oral,64%
same,% Inhibition of PAF-induced bronchoconstriction,[4]; 0.313 mg/kg oral,48%
same,% Inhibition of PAF-induced bronchoconstriction,[4]; 1.25 mg/kg oral,71%
"CC1=C(C)C(=O)C(C(CCCCCC(=O)O)c2ccc(Cl)cc2)=C(C)C1=O (stereo not shown) [Compound No. 90, 7-(4-chlorophenyl)-7-(3,5,6-trimethyl-1,4-benzoquinon-2-yl)heptanoic acid]",inhibition in vivo at 20 mg/kg,[2],61%
same,Acute toxicity (number of dead animals/number of animals used),mice of ICR breed,0/5
COc1ccc(C(CCCCCC(=O)O)C2=C(C)C(=O)C(C)=C(C)C2=O)cc1 (stereo not shown) [compound 23],IC50,5-Lipoxygenase,10 nM
same,inhibition in vivo at 20 mg/kg,[2],83%
same,% Inhibition of LTD4-induced bronchoconstriction,"[3]; 0.313 mg/kg, 1 hr. before LTD4",69%
same,% Inhibition of LTD4-induced bronchoconstriction,"[3]; 1.25 mg/kg, 1 hr. before LTD4",80%
same,% Inhibition of LTD4-induced bronchoconstriction,"[3]; 5 mg/kg, 1 hr. before LTD4",68%
same,% Inhibition of LTD4-induced bronchoconstriction,"[3]; 5 mg/kg, 24 hrs. before LTD4",49%
same,% Inhibition of PAF-induced bronchoconstriction,[4]; 0.08 mg/kg oral,75%
same,% Inhibition of PAF-induced bronchoconstriction,[4]; 0.313 mg/kg oral,71%
same,% Inhibition of PAF-induced bronchoconstriction,[4]; 1.25 mg/kg oral,73%
CC1=C(C)C(=O)C(C(CCCCCC(=O)O)c2ccc(C)s2)=C(C)C1=O (stereo not shown) [compound 33],inhibition in vivo at 20 mg/kg,[2],75%
same,Acute toxicity (number of dead animals/number of animals used),mice of ICR breed,0/5
CC1=C(C)C(=O)C(C(CCCC(=O)O)c2ccccc2)=C(C)C1=O (stereo not shown) [compound 36],IC50,5-Lipoxygenase,320 nM
same,inhibition in vivo at 20 mg/kg,[2],80%
same,Acute toxicity (number of dead animals/number of animals used),mice of ICR breed,0/5
COC1=C(OC)C(=O)C(C(CCCCCC(=O)O)c2ccc(F)cc2)=C(C)C1=O (stereo not shown) [compound 88],inhibition in vivo at 20 mg/kg,[2],79%
same,Acute toxicity (number of dead animals/number of animals used),mice of ICR breed,0/5
CC1=C(C(CCCCCC(=O)O)c2ccc(Cl)cc2)C(=O)c2ccccc2C1=O (stereo not shown) [compound 92],inhibition in vivo at 20 mg/kg,[2],92%
same,Acute toxicity (number of dead animals/number of animals used),mice of ICR breed,0/5
COC1=C(OC)C(=O)C(C(CCCCCC(=O)O)c2ccc(C)cc2)=C(C)C1=O (stereo not shown) [compound 94],inhibition in vivo at 20 mg/kg,[2],81%
same,Acute toxicity (number of dead animals/number of animals used),mice of ICR breed,0/5
CC1=C(C)C(=O)C(C(CCCCCC(=O)O)c2ccc(C(C)C)cc2)=C(C)C1=O (stereo not shown) [compound 95],inhibition in vivo at 20 mg/kg,[2],63%
same,Acute toxicity (number of dead animals/number of animals used),mice of ICR breed,0/5
COc1ccc(C(CCCCCC(=O)O)C2=C(C)C(=O)C(C)=C(C)C2=O)cc1OC (stereo not shown) [compound 97],inhibition in vivo at 20 mg/kg,[2],85%
same,Acute toxicity (number of dead animals/number of animals used),mice of ICR breed,0/5
tocopherol [reference compound],Inhibition of lipid peroxides production,[5]; 10^-4 M,46.5 ± 2.5%
same,Inhibition of lipid peroxides production,[5]; 10^-5 M,51.8 ± 10.2%
same,Inhibition of lipid peroxides production,[5]; 10^-6 M,0%
